# From ChEMBL document CHEMBL1201862, “PubChem BioAssay data set” (2004)
# Activity calls are given as the source filed them.
# What was measured:
# Assay type in all cases: functional
# Beta-arrestin-1 = Beta-arrestin-1 (Homo sapiens, UniProt P49407); assay: beta-arrestin/AP2 interaction blockers, potency – biochemical, cherry pick 1, beta2-adaptin appendage, flow cytometry, dose response (AID 588783)
# [1] = viability loss in THP-1 monocytes – THP-1 cells, cytotoxicity control for Vif-APOBEC3G degradation inhibitor project, dose response (AID 1117359); conditions: THP-1
# [2] = target: T1, Rac GTPase-activating protein 1 (Homo sapiens, UniProt Q9H0H5); assay: blockers of MgcRacGAP-driven Rac1 GTP hydrolysis – biochemical, ADP Hunter fluorescence, primary and confirmatory, confirmation (AID 624330)
# T1 sequence (Q9H0H5 whole entry): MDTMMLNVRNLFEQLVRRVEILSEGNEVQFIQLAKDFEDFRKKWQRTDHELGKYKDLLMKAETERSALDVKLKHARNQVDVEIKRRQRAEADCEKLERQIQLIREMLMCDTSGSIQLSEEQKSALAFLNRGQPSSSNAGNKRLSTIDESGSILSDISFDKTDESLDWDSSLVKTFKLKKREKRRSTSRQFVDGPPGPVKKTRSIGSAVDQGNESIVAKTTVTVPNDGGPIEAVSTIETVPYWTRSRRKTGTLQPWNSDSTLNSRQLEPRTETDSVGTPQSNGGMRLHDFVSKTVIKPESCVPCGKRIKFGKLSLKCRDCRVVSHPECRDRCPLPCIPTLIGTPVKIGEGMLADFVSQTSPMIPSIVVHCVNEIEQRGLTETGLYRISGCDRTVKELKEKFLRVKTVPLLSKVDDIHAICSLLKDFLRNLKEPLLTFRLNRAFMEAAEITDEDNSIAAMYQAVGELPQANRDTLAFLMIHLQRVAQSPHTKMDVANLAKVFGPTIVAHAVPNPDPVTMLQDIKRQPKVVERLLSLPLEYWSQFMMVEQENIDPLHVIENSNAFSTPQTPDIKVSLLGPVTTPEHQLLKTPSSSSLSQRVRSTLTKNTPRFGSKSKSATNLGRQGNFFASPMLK
# [3] = target: DNA dC->dU-editing enzyme APOBEC-3G (Homo sapiens, UniProt Q9HC16); assay: Dose Response confirmation of small molecule APOBEC3G DNA Deaminase Inhibitors via a fluorescence-based single-stranded DNA deaminase assay. [Related pubchem assays (depositor defined):AID493012, AID493028]
# DNA dC->dU-editing enzyme APOBEC-3G, sequence (Q9HC16 whole entry): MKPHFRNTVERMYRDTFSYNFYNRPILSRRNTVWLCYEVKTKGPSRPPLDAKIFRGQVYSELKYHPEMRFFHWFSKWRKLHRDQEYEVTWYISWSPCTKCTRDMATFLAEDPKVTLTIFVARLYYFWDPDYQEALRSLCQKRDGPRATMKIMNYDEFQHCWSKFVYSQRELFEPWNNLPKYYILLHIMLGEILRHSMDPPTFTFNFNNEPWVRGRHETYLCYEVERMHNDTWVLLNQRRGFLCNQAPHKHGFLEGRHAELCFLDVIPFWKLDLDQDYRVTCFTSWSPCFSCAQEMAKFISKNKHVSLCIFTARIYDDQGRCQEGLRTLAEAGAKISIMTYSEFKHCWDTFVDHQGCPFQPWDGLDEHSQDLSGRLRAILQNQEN
# Vero = assay: viability of Vero cells under compound – cytotoxicity control for flavivirus capping enzyme inhibitors (AID 588742); conditions: Chlorocebus sabaeus
# Beta-galactosidase = Beta-galactosidase (Escherichia coli, UniProt Q8VNN2); assay: detection-enzyme interference by beta-gal modulators – biochemical, E. coli enzyme, set 3, artefact control for CCR6 antagonist project, dose response (AID 504712)
# Beta-galactosidase, sequence (Q8VNN2 whole entry): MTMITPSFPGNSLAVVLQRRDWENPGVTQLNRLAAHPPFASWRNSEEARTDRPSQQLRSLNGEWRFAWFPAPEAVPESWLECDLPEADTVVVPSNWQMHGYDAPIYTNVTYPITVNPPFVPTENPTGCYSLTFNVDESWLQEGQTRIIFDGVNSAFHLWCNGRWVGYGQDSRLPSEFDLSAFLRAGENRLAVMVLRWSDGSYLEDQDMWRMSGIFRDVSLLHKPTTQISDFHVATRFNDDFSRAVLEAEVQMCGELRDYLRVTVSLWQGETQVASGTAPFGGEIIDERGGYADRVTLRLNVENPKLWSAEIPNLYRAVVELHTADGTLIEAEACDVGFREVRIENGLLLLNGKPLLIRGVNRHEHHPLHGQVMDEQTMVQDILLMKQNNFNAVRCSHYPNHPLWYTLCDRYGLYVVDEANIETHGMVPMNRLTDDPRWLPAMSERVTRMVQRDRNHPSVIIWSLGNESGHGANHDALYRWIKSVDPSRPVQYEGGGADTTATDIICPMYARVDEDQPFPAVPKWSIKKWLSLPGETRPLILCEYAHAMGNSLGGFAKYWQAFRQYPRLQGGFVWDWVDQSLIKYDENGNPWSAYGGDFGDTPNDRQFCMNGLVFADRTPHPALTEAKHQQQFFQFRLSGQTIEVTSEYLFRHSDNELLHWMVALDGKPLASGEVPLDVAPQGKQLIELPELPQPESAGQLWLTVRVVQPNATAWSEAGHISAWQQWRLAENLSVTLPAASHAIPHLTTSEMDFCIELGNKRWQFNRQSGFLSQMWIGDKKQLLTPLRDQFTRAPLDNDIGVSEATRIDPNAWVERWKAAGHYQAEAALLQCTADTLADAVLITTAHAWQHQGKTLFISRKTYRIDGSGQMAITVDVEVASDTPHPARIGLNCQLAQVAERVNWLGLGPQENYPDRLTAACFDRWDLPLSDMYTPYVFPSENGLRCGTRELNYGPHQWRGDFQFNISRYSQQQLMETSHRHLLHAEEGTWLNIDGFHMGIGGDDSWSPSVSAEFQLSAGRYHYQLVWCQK
# [4] = viability loss in HeLa cells – cytotoxicity control for MgcRacGAP inhibitor project, dose response (AID 624300)
# Genome polyprotein = Genome polyprotein (dengue virus type 2, UniProt P29990); assay: flavivirus cap methylation enzyme inhibition – biochemical, confirmation dose response, primary screen (AID 588689)
# Genome polyprotein, sequence (P29990 2492-3391 limits assumed): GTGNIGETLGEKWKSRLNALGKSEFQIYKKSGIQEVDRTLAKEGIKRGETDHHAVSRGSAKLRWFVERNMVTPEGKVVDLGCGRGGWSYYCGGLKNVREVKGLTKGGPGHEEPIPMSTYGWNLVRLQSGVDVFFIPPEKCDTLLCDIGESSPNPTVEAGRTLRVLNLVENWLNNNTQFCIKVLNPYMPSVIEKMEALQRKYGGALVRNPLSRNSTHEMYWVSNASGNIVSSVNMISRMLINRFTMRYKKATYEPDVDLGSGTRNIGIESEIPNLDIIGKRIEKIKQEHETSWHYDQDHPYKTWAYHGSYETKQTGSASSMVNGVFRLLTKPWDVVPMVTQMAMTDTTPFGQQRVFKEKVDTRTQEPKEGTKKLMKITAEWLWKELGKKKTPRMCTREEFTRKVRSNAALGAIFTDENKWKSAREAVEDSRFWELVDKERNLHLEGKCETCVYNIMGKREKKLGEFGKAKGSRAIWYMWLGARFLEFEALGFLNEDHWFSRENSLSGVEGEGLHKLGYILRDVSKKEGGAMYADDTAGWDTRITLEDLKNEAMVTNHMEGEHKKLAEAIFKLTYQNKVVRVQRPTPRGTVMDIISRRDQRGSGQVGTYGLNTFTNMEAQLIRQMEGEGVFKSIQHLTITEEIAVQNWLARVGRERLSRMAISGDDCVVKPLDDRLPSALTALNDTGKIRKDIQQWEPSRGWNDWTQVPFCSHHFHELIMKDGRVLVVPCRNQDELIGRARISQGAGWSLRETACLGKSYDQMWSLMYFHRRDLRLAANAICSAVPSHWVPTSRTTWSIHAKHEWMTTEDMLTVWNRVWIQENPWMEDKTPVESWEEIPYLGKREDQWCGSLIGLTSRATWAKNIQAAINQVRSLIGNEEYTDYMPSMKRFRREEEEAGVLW
# [5] = target: Induced myeloid leukemia cell differentiation protein Mcl-1 (Homo sapiens, UniProt Q07820)
# Induced myeloid leukemia cell differentiation protein Mcl-1, sequence (Q07820 whole entry): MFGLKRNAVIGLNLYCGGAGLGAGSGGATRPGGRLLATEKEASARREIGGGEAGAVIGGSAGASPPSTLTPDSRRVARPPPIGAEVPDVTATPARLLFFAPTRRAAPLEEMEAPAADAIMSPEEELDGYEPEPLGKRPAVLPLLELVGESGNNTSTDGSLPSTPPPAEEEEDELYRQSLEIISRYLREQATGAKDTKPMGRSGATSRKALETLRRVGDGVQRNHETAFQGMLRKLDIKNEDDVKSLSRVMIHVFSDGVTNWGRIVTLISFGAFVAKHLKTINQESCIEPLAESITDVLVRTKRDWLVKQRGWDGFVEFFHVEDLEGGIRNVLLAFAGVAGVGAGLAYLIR
# Hexokinase-1 = target: T2, Hexokinase-1 (Homo sapiens, UniProt P19367); assay: hexokinase 1 activity inhibitors, potency – biochemical, set 2, resazurin fluorescence coupled readout, selectivity assay for HKDC1 inhibitor project, SAR follow-up (AID 588356)
# T2 sequence (P19367 whole entry): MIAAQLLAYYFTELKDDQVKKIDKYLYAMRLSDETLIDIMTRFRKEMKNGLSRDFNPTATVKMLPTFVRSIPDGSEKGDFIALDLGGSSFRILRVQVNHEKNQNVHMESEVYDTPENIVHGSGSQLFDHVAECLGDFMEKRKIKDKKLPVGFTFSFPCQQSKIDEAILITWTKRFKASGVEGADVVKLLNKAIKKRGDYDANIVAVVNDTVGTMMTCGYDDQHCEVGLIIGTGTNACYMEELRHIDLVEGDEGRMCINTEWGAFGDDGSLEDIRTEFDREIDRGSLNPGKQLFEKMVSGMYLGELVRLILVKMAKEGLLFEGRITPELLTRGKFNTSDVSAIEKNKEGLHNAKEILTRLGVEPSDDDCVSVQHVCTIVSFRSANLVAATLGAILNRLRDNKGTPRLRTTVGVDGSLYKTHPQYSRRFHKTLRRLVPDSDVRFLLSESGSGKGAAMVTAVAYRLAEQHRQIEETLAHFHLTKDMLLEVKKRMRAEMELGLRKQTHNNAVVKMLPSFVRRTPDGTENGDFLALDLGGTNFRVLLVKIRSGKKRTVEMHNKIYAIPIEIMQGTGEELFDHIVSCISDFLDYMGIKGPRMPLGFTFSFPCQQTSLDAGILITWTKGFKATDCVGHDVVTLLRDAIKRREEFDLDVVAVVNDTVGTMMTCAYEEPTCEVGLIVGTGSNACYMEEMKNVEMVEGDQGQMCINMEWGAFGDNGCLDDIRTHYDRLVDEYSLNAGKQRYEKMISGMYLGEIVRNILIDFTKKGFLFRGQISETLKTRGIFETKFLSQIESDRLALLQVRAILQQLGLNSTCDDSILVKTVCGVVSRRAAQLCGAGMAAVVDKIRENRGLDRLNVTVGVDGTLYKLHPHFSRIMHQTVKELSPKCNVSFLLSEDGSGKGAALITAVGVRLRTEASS
# Hexokinase HKDC1 = target: T3, Hexokinase HKDC1 (Homo sapiens, UniProt Q2TB90); assay: analog inhibition of human HKDC1 activity – biochemical, set 2, SAR follow-up (AID 588355)
# T3 sequence (Q2TB90 whole entry): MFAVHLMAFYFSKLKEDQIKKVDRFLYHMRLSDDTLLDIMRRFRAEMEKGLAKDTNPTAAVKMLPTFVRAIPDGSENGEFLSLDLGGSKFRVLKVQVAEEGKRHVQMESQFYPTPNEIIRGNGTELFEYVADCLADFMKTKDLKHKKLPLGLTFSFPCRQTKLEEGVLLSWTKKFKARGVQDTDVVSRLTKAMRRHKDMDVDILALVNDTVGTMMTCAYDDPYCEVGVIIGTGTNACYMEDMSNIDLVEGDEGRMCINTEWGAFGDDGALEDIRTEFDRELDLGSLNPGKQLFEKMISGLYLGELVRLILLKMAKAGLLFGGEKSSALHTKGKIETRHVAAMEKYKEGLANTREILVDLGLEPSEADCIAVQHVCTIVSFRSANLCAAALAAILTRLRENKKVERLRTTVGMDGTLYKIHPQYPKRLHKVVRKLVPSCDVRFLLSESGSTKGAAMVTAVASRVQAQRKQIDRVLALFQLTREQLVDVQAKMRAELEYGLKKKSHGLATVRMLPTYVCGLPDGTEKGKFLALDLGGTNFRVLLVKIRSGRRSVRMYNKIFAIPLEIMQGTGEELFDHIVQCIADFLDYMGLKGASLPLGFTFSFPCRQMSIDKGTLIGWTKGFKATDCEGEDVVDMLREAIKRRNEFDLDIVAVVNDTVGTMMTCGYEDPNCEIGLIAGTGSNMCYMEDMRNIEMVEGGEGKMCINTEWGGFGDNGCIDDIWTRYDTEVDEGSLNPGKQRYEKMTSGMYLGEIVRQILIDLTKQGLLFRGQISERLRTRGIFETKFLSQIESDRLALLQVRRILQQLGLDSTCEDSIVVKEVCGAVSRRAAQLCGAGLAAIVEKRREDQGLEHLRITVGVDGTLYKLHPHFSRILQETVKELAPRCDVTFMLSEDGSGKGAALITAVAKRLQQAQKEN
# [6] = target: T4, Sentrin-specific protease 7 (Homo sapiens, UniProt Q9BQF6); assay: inhibition of human SENP7 cleavage activity – biochemical, luminescence, set 2, SAR follow-up (AID 588600)
# T4 sequence (Q9BQF6 whole entry): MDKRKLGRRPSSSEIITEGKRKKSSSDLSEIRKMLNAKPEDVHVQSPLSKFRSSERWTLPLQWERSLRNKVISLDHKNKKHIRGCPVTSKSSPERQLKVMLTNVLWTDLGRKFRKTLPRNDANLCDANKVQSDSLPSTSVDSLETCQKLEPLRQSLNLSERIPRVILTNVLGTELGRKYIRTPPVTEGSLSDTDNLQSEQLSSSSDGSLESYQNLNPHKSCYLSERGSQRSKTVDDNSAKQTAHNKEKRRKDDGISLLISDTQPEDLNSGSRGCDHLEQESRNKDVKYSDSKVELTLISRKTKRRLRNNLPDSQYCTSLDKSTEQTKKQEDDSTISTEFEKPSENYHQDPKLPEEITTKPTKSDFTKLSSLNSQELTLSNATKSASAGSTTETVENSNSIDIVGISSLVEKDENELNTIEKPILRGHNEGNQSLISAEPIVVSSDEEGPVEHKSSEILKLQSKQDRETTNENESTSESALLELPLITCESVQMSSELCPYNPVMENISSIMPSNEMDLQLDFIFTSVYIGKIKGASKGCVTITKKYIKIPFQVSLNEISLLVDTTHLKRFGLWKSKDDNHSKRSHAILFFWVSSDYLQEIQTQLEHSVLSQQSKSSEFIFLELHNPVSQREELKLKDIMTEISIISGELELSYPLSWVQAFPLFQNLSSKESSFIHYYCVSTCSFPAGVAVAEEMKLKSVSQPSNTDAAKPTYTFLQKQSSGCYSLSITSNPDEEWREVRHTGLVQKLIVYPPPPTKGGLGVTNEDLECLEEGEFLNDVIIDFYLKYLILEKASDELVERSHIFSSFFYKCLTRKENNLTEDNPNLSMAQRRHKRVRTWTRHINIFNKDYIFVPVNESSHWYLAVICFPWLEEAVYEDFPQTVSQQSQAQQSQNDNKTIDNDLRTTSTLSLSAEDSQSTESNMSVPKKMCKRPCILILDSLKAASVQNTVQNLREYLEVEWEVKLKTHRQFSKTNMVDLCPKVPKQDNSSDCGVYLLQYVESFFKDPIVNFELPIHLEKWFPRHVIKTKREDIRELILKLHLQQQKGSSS
# [7] = target: T5, Sentrin-specific protease 8 (Homo sapiens, UniProt Q96LD8); assay: inhibition of sentrin protease 8 – biochemical, luminescence, set 2, SAR follow-up (AID 588601)
# T5 sequence (Q96LD8 whole entry): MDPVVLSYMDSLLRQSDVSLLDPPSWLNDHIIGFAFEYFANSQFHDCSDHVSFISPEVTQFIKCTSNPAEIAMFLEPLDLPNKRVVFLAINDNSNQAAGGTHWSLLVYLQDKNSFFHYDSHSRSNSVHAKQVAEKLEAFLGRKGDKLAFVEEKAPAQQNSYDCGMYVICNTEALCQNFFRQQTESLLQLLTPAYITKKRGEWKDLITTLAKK
# [8] = target: T6, Sentrin-specific protease 6 (Homo sapiens, UniProt Q9GZR1); assay: inhibition of human SENP6 catalytic domain – biochemical, luminescence, set 2, SAR follow-up (AID 588598)
# T6 sequence (Q9GZR1 whole entry): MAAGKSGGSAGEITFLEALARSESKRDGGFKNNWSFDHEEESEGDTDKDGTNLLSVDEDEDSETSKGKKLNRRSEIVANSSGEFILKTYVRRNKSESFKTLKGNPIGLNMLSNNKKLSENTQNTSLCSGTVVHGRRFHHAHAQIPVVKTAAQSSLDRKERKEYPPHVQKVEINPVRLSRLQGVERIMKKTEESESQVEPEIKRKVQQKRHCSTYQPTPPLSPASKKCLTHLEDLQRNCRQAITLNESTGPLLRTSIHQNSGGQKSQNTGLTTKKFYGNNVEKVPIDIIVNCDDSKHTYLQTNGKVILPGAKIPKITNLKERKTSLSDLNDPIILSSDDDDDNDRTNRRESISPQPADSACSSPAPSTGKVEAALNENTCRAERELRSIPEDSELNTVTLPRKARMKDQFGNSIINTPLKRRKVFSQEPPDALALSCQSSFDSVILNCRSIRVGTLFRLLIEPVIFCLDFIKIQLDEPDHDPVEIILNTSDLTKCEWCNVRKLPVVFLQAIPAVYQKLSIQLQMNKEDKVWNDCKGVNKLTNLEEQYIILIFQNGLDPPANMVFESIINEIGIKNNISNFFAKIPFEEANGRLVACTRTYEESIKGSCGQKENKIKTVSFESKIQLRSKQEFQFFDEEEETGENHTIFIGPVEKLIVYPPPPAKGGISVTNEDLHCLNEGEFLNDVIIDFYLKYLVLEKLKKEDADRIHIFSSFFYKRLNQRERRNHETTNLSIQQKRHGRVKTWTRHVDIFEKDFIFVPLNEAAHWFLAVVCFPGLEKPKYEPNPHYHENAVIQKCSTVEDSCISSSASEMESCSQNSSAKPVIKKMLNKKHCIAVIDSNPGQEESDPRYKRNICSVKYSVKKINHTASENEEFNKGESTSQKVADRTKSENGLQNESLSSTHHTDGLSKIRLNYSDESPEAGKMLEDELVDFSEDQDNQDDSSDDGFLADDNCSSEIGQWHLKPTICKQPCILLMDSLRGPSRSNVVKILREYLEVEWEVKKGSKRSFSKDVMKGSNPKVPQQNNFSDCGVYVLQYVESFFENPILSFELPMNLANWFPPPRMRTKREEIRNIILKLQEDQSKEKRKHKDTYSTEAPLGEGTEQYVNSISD
# Caspase-3 = target: T7, Caspase-3 (Homo sapiens, UniProt P42574); assay: inhibition of recombinant caspase-3 activity – biochemical, luminescence, set 2, selectivity assay for SENP protease inhibitor project, SAR follow-up (AID 588599)
# T7 sequence (P42574 whole entry): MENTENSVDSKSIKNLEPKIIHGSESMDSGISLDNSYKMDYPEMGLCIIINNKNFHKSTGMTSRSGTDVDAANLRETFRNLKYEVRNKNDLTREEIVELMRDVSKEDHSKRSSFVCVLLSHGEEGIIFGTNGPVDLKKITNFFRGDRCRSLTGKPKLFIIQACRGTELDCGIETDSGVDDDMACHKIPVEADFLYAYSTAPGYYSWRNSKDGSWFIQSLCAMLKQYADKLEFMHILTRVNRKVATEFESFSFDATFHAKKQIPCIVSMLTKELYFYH
# Beta-arrestin-1, sequence (P49407 whole entry): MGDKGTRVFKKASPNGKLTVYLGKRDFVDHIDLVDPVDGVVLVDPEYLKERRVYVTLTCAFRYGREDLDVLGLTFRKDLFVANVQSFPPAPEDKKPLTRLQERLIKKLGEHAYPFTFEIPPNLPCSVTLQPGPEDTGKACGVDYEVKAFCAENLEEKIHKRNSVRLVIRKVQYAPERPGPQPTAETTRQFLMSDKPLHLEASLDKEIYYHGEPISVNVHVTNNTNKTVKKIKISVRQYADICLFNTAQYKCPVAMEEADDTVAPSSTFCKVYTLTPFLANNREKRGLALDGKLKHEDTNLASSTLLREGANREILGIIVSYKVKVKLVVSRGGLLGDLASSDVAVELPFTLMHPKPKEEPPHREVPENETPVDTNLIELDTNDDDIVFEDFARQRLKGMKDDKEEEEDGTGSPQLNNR
smiles,measurement,setting,value
CCC(=O)NC1=C(Cl)C(=O)C(NC(=O)CC)=C(Cl)C1=O,IC50,Beta-arrestin-1,2.79 µM (active)
same,CC50,[1],33.9 µM (active)
same,IC50,[2],23.3 µM (active)
same,IC50,[3],2.67 µM (active)
same,CC50,Vero,24 µM (active)
same,IC50,Beta-galactosidase,> 66.6 µM (inactive)
same,CC50,[4],48 µM (active)
same,IC50,Genome polyprotein,5.19 µM (active)
same,IC50,[5],4.29 µM (active)
CCCCN1C(=O)C(NC(C)=O)c2cc(Cl)ccc21 (stereo not given),IC50,Hexokinase-1,> 80 µM (inactive)
same,IC50,Hexokinase HKDC1,> 80 µM (inactive)
CCCS(=O)(=O)c1c(S(=O)(=O)CCC)c2c(C)cccn2c1C(=O)N/N=C\c1c[nH]c2ccccc12,IC50,[6],> 99 µM (inactive)
same,IC50,[7],> 99 µM (inactive)
same,IC50,[8],> 99 µM (inactive)
same,IC50,Caspase-3,> 99 µM (inactive)
